Read-outs that look alike come from different tables or passages of the source.
What was measured:
[1] = target: FABP3; design: method as in PMID 11170430; conditions: human heart FABP (FABP3); cited from earlier work
[2] = target: T1, FABP1 (Homo sapiens, UniProt P07148); test: DAUDA displacement fluorescence titrations of DAUDA–FABP1 with fatty acids, fit in KinTek Explorer; type: binding
T1 construct: GST (N, cleaved yes); made in house; host or cells: Escherichia coli DH5α
T1 sequence (P07148 with tags, fused parts or gaps): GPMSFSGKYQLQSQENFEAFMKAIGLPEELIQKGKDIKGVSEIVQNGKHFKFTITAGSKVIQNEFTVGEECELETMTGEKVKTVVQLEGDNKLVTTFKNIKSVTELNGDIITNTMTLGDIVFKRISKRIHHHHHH
Text: The FABP–DAUDA system was used to screen saturated fatty acids (C12 to C18) for binding to FABP, and the Kd values were estimated in competition with the fluorophore (using its known Kd) with the kinetic modeling software KinTek Explorer. The general model is shown in Fig. 5A, where the substrate is competed against the fluorescent DAUDA–FABP1 complex for binding, yielding a ternary DAUDA–FABP1–substrate complex that is accompanied by an attenuation in fluorescence.
Figure 5 Fluorescence titrations of DAUDA–FABP1 with fatty acids (“forward” titrations).A, model of all binding equilibria accounted for in the DAUDA displacement assays. In the fluorescence assays (λex = 335 nm), DAUDA (D) binds to FABP1 (F) to form a fluorescent (indicated with yellow flash) complex (FD), with which a lipid (S) is then competed against for binding. The binding of S attenuates the fluorescence (denoted with a smaller yellow flash) and forms a ternary complex (FDS). High concentrations of S may completely displace D to form FSS, a spectroscopically silent complex. Using this method, fluorescence titrations were carried out with the fatty acids (B) laurate, (C) myristate, (D) palmitate, (E) 16-hydroxypalmitate, and (F) stearate. Fluorescence at the emission maximum (482 nm) was monitored (as in Fig. 4) and normalized to the starting fluorescence (i.e., the FD complex prior to the addition of S). Each data point corresponds to one independent replicate. DAUDA, 11-dansylaminoundecanoic acid; FABP1, fatty acid binding protein.
For the titrations with lipids, solutions of FABP1 (0.5 μM) and DAUDA (0.25 μM) were prepared such that the fluorescent species was not present in excess ([75]). A baseline was recorded with phosphate buffer, and a starting (basis) spectrum was recorded of the FABP–DAUDA complex (1 ml). The lipid solutions were gradually added to the cuvette with gentle mixing (pipetting up and down ∼7× with a pipette tip), and spectra were recorded (Fig. S12A). Control titrations were also performed the same day with solvent alone (Fig. S12B) as a normalizing factor for the lipid titrations as fluorescence attenuation was also observed to a much lesser degree as a solvent effect (Fig. S12C, D). […] The data were processed such that within the lipid titration and the solvent titration, the F482 values were normalized to the starting value (the initial FABP1–DAUDA complex with nothing added, set to 100%). The relative fluorescence of the lipid titration was then normalized to the relative fluorescence of the solvent titration to adjust for fluorescence attenuation observed in the solvent titration (presumably from altering the fluorophore environment). Thus, the data were processed according to y=(F482/F482(initial))lipid/(F482/F482(initial))solvent , and the resulting values were plotted as a function of lipid concentration (Fig. S12E). The curve was imported into KinTek Explorer ([76]) and was fit to a kinetic model (Fig. S13) to determine the Kd values (Table 1). Within the KinTek software, all fluorescent species required fluorescence scaling factors to convert signal to concentration. Scaling factors for the FABP–DAUDA complex, FABP–DAUDA–lipid complex, and DAUDA alone were 460, 92, and 8, respectively.
Figure S12. Data processing for FABP1 titration with palmitate. Fluorescence spectrum of increasing additions of (A) palmitate (0-2 µM, added in C2H5OH) and (B) C2H5OH to a mixture of DAUDA (0.25 µM) and FABP1 (0.5 µM), performed as described in the Experimental Methods (see “Titrations of FABP1 with lipids, DAUDA”). C, fluorescence values at 482 nm (F482) from the titrations presented in parts A and B are normalized to the starting values (DAUDA-FABP1 complex, no volume added). Data are reported as a function of volume of titrant added to the cuvette (black, C2H5OH alone; red, palmitate in C2H5OH). […]

[3] = target: T1, FABP1; conditions: human FABP1, fluorescence displacement assay; read-out: Kd; cited from earlier work
[4] = target: T1, FABP1; design: method as in PMID 10852718; conditions: ADIFAB system; cited from earlier work
[5] = target: FABP1; design: method as in PMID 8541331; conditions: bovine protein, cited from earlier work
[6] = target: FABP1; design: method as in PMID 8940102; conditions: rat protein, cited from earlier work
[7] = lipid binding to DAUDA-bound FABP1 (DAUDA displacement), read-out: Kd, FD + S ↔ FDS
[8] = lipid binding to apo-FABP1, estimated via kinetic modeling, read-out: Kd, F + S ↔ FS
[9] = lipid binding to ternary complex FDS (full displacement of DAUDA), low-affinity site, read-out: Kd, FDS + S ↔ FSS + D
[10] = high-affinity site, read-out: Kd,1
[11] = low-affinity site, read-out: Kd,2

In the case of `O=C(O)CCC/C=C\C/C=C\C/C=C\C/C=C\CCCCCO` [20-HETE, 20-hydroxyeicosatetraenoic acid], the Kd [1] is given as ~0.44 µM.
`CCCCCCCCCCCCCCCCCC(=O)O` [Stearate (C18), stearate] gave a remaining activity at 0.01 µM ([2]; lipid 0.01 µM, FABP1 0.5 µM, DAUDA 0.25 µM, F482 normalized, read-out: % Fluorescence) of 92.3%, a remaining activity at 0.025 µM ([2]; lipid 0.025 µM, FABP1 0.5 µM, DAUDA 0.25 µM, F482 normalized) of 92.5% and a remaining activity at 0.05 µM ([2]; lipid 0.05 µM, FABP1 0.5 µM, DAUDA 0.25 µM, F482 normalized) of 87.6%. The remaining activity at 0.075 µM ([2]; lipid 0.075 µM, FABP1 0.5 µM, DAUDA 0.25 µM, F482 normalized) was 81.3%, the remaining activity at 0.1 µM ([2]; lipid 0.1 µM, FABP1 0.5 µM, DAUDA 0.25 µM, F482 normalized, read-out: % Fluorescence) was 78.3% and the remaining activity at 0.15 µM ([2]; lipid 0.15 µM, FABP1 0.5 µM, DAUDA 0.25 µM, F482 normalized) was 69.4%. For the same molecule, the remaining activity at 0.2 µM ([2]; lipid 0.2 µM, FABP1 0.5 µM, DAUDA 0.25 µM, F482 normalized) was 61%, the remaining activity at 0.25 µM ([2]; lipid 0.25 µM, FABP1 0.5 µM, DAUDA 0.25 µM, F482 normalized) was 54.2% and the remaining activity at 0.35 µM ([2]; lipid 0.35 µM, FABP1 0.5 µM, DAUDA 0.25 µM, F482 normalized) was 44.4%. For the same molecule, the remaining activity at 0.45 µM ([2]; lipid 0.45 µM, FABP1 0.5 µM, DAUDA 0.25 µM, F482 normalized) was 37.1%, the remaining activity at 0.6 µM ([2]; lipid 0.6 µM, FABP1 0.5 µM, DAUDA 0.25 µM, F482 normalized, read-out: % Fluorescence) was 31.3% and the remaining activity at 0.9 µM ([2]; lipid 0.9 µM, FABP1 0.5 µM, DAUDA 0.25 µM, F482 normalized) was 24.2%. For the same molecule, the remaining activity at 1.15 µM ([2]; lipid 1.15 µM, FABP1 0.5 µM, DAUDA 0.25 µM, F482 normalized) was 24.1%, the remaining activity at 1.4 µM ([2]; lipid 1.4 µM, FABP1 0.5 µM, DAUDA 0.25 µM, F482 normalized) was 23.6% and the remaining activity at 1.9 µM ([2]; lipid 1.9 µM, FABP1 0.5 µM, DAUDA 0.25 µM, F482 normalized) was 23.3%. It also gave a koff ([2]; lipid (S) binding to apo-FABP1 (F), kinetic modeling, on-rate 9.0 × 10^7 M^−1 s^−1, read-out: koff, F + S ↔ FS) of 6.2 s⁻¹, a Kd [2, 7] of 0.021 µM and a koff ([2]; lipid binding to DAUDA-bound FABP1 (FD), on-rate 2.3 × 10^7 M^−1 s^−1, read-out: koff, FD + S ↔ FDS) of 0.48 s⁻¹. It also gave a Kd [2, 8] of 0.069 µM, a Kd [2, 9] of 34 µM and a koff ([2]; lipid binding to ternary complex FDS (full displacement of DAUDA), read-out: koff, FDS + S ↔ FSS + D) of 770 s⁻¹. The Kd [3] was 0.029 ± 0.002 µM and the Kd [4] was 0.023 µM.
For `CCCCCCCCCCCC(=O)O` [Laurate (C12), laurate], the “% Fluorescence” value ([2]; lipid 1 µM, FABP1 0.5 µM, DAUDA 0.25 µM, F482 normalized) was 94.95%, the “% Fluorescence” value ([2]; lipid 2 µM, FABP1 0.5 µM, DAUDA 0.25 µM, F482 normalized) was 89.77% and the “% Fluorescence” value ([2]; lipid 3.5 µM, FABP1 0.5 µM, DAUDA 0.25 µM, F482 normalized) was 89.03%. For the same molecule, the “% Fluorescence” value ([2]; lipid 5 µM, FABP1 0.5 µM, DAUDA 0.25 µM, F482 normalized) was 85.89%, the “% Fluorescence” value ([2]; lipid 7.5 µM, FABP1 0.5 µM, DAUDA 0.25 µM, F482 normalized) was 85.69% and the “% Fluorescence” value ([2]; lipid 10 µM, FABP1 0.5 µM, DAUDA 0.25 µM, F482 normalized) was 75.3%. For the same molecule, the “% Fluorescence” value ([2]; lipid 20 µM, FABP1 0.5 µM, DAUDA 0.25 µM, F482 normalized) was 57.47%, the “% Fluorescence” value ([2]; lipid 35 µM, FABP1 0.5 µM, DAUDA 0.25 µM, F482 normalized) was 47.27% and the “% Fluorescence” value ([2]; lipid 50 µM, FABP1 0.5 µM, DAUDA 0.25 µM, F482 normalized) was 41.27%. The “% Fluorescence” value ([2]; lipid 75 µM, FABP1 0.5 µM, DAUDA 0.25 µM, F482 normalized) was 35.15%, the “% Fluorescence” value ([2]; lipid 100 µM, FABP1 0.5 µM, DAUDA 0.25 µM, F482 normalized) was 31.33% and the “% Fluorescence” value ([2]; lipid 125 µM, FABP1 0.5 µM, DAUDA 0.25 µM, F482 normalized) was 28.58%. The “% Fluorescence” value ([2]; lipid 150 µM, FABP1 0.5 µM, DAUDA 0.25 µM, F482 normalized) was 29.65%, the “% Fluorescence” value ([2]; lipid 200 µM, FABP1 0.5 µM, DAUDA 0.25 µM, F482 normalized) was 27.61% and the “% Fluorescence” value ([2]; lipid 300 µM, FABP1 0.5 µM, DAUDA 0.25 µM, F482 normalized) was 25.74%. For the same molecule, the “% Fluorescence” value ([2]; lipid 400 µM, FABP1 0.5 µM, DAUDA 0.25 µM, F482 normalized) was 23.15%, the “koff, F + S ↔ FS” value ([2]; lipid (S) binding to apo-FABP1 (F), kinetic modeling, on-rate 9.0 × 10^7 M^−1 s^−1) was 2700 s⁻¹ and the Kd [2, 7] was 18 µM. For the same molecule, the “koff, FD + S ↔ FDS” value ([2]; lipid binding to DAUDA-bound FABP1 (FD), on-rate 2.3 × 10^7 M^−1 s^−1) was 410 s⁻¹, the Kd [2, 8] was 30 µM and the Kd [2, 9] was > 1000 µM.
In the case of `CCCCC/C=C\C/C=C\C/C=C\C/C=C\CCCC(=O)O` [arachidonate], the Kd [1] is given as ~0.05 µM.
For `CCCCCCCC/C=C\CCCCCCCC(=O)O` [oleate], the Kd [5, 10] is given as 0.26 µM and the Kd [5, 11] is given as > 5 µM.
For `CCCCC/C=C\C/C=C\CCCCCCCC(=O)O` [linoleate], the Kd [6, 10] is listed as ~0.01 µM and the Kd [6, 11] is listed as ~0.2 µM.
`CCCCCCCCCCCCCC(=O)O` [Myristate (C14), myristate] gave a Kd [2, 7] of 0.86 µM, a Kd [2, 8] of 2.6 µM and a Kd [2, 9] of 43 µM. The remaining activity at 0.01 µM ([2]; read-out: % Fluorescence) was 98.3%, the remaining activity at 0.03 µM ([2]; read-out: % Fluorescence) was 99.1% and the remaining activity at 0.06 µM ([2]; read-out: % Fluorescence) was 98.2%. For the same molecule, the remaining activity at 0.1 µM ([2]; read-out: % Fluorescence) was 97.3%, the remaining activity at 0.3 µM ([2]; read-out: % Fluorescence) was 92.9% and the remaining activity at 0.6 µM ([2]; read-out: % Fluorescence) was 81%. It also gave a remaining activity at 1 µM ([2]; read-out: % Fluorescence) of 71.9%, a remaining activity at 3 µM ([2]; read-out: % Fluorescence) of 42.2% and a remaining activity at 6 µM ([2]; read-out: % Fluorescence) of 25.9%. For the same molecule, the remaining activity at 10 µM ([2]; read-out: % Fluorescence) was 18.2%, the remaining activity at 30 µM ([2]; read-out: % Fluorescence) was 13.1% and the koff ([2]; read-out: koff, F + S ↔ FS) was 240 s⁻¹. The koff ([2]; read-out: koff, FD + S ↔ FDS) was 20 s⁻¹ and the koff ([2]; read-out: koff, FDS + S ↔ FSS + D) was 980 s⁻¹.
